Results published in patent US20230265118A1, “SALT OF CURCUMIN MONOGLUCURONIDE” (THERABIOPHARMA INC., priority 2020, published 2023).

Columns and labels:
[1] = Solubility in distilled water; assay type: physicochemical; details: 100 mg in 1 mL of distilled water
[2] = Stability in water-methanol solution (residual ratio by HPLC); assay type: physicochemical; details: for Residual Ratio: dissolved in 15 mL water-methanol (1:1), left at room temperature for 35 days, HPLC; for Half-Life: solution in water-methanol (1:1), room temperature
Protocol: A curcumin monoglucuronic acid conjugate (3.62 mg) and a sodium salt of the curcumin monoglucuronic acid conjugate (3.44 mg) were each dissolved in 15 mL of water-methanol (1:1). The prepared solution was left at room temperature for 35 days, and a residual ratio was determined by HPLC.

Row | Structure (SMILES) | Solubility in distilled water [1] | Residual Ratio [2] | Half-Life [2]
1 | COc1cc(/C=C/C(=O)CC(=O)/C=C/c2ccc(O[C@@H]3O[C@H](C(=O)[O-])[C@@H](O)[C@H](O)[C@H]3O)c(OC)c2)ccc1O.[Na+] [sodium(2S,3S,4S,5R,6S)-3,4,5-trihydroxy-6-(4-((1E,6E)-7-(4-hydroxy-3-methoxyphenyl)-3,5-dioxohepta-1,6-dien-1-yl)-2-methoxyphenoxy)tetrahydro-2H-pyran-2-carboxylate] | > 100 mg/mL | 93.8% | 378.4 days
2 | COc1cc(/C=C/C(=O)CC(=O)/C=C/c2ccc(O[C@@H]3O[C@H](C(=O)O)[C@@H](O)[C@H](O)[C@H]3O)c(OC)c2)ccc1O [curcumin monoglucuronic acid conjugate, curcumin monoglucuronide] | hardly dissolved | 80.8% | 126.1 days
